How the values were obtained:
Format in all cases: cell-based
TLR7 [1] = target: T1, TLR7 (Homo sapiens, UniProt Q9NYK1); assay: HEK293 TLR7/NFKb reporter cell assay with R848 agonist; design: expressed in transfected cells; host or cells: HEK293
T1 sequence (Q9NYK1 27-1049): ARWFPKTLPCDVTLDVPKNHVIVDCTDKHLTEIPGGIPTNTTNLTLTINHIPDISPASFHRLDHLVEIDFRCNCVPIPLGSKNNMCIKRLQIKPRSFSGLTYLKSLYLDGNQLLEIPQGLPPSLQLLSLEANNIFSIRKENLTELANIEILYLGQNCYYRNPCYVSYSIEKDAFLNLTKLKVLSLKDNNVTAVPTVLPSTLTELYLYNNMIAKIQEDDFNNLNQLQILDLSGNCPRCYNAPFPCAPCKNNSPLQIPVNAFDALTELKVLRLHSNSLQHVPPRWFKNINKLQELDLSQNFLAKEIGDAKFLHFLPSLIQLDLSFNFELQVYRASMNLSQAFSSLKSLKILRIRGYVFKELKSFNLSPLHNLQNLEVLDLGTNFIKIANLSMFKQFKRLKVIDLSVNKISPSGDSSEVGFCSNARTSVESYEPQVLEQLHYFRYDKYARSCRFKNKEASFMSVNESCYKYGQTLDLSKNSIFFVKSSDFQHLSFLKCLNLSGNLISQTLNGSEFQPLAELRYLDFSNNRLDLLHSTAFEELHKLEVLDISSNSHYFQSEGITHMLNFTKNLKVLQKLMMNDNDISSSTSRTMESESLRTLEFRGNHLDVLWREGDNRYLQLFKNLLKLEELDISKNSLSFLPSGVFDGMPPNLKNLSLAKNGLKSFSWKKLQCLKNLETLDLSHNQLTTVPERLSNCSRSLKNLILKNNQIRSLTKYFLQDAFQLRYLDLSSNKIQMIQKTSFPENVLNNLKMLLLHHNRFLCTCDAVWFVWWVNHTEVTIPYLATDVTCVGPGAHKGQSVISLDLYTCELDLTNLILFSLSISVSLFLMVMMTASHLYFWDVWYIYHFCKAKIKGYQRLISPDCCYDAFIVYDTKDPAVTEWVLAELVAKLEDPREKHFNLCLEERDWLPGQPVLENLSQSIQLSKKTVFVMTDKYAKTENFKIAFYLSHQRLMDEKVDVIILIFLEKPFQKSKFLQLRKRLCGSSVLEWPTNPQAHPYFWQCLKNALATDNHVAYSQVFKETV
Description: Into 384 CulturePlates (Corning 3707) was placed 5000 c/w of HEK293 TLR7/NFKb reporter cells in 30 µL DMEM without phenol red and 10% i.a. FCS and 2 mM L-glutamine. The cells were incubated for 24 h at 37° C., 10% carbon dioxide and 90% relative humidity. 3 µL of controls, standards, and compounds were dispensed to wells, incubated for 30 min then 3 µL of R848 agonist (Resiquimod) in 20 mM HEPES buffer was added. After incubation for 5 hours, it was allowed to stand at room temperature for 15 min. 10 µL of Steady-Glo substrate reagent was added and assay plates were shaken for 5 min at 1500 rpm. The assay plate was allowed to sit for 30 min at room temperature and then read on an EnVision plate reader.

TLR8 = target: T2, TLR8 (Homo sapiens, UniProt Q9NR97); assay: Human whole blood assay, TLR8-specific agonist stimulation, IL-6 by AlphaLISA; conditions: TLR8-specific agonist 0.5 µM, IL-6 readout, read-out: IC50 TLR8 (IL6 READOUT) HUMAN WHOLE BLOOD (N=2)
T2 construct: Human whole blood from healthy donors was drawn into EDTA Vacutainer tubes; endogenous in cells; host or cells: human whole blood (healthy donors)
T2 sequence (Q9NR97 27-1041): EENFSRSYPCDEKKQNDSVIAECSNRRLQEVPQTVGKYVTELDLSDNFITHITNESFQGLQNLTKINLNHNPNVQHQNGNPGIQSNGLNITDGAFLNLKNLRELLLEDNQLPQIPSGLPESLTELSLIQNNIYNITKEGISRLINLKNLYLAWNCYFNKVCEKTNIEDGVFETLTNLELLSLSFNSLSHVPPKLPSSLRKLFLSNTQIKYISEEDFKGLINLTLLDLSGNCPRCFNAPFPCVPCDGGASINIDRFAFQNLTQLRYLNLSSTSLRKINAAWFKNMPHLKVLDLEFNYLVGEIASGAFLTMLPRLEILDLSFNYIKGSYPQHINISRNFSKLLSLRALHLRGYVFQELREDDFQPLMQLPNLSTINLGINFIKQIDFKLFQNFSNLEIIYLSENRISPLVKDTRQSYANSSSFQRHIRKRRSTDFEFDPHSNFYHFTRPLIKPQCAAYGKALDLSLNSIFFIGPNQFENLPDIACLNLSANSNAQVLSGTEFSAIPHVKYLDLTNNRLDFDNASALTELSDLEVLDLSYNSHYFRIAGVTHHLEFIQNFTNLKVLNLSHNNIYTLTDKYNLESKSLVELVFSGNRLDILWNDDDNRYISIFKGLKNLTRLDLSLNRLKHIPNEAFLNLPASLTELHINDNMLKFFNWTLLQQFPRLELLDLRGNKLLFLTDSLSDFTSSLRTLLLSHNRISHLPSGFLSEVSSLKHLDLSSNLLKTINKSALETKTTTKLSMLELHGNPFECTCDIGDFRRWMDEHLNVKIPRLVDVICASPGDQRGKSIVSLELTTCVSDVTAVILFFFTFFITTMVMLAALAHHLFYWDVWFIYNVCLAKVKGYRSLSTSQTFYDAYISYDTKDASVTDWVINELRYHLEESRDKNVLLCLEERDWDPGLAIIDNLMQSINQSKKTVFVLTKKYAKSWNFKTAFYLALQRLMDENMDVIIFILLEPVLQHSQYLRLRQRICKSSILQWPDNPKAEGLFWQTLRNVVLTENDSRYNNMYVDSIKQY
Description: (§1) Human whole blood from healthy donors was drawn into EDTA Vacutainer tubes and the experiment started within 2 hr of draw. Four parts blood was diluted with 1 part PBS. 10 mM compounds stock solutions were serially diluted 1:3 eleven times in DMSO. Each serial dilution was further diluted by transferring 3 µl to 100 µl RPMI. For the stimulation only and no stimulation controls, 3 µl 100% DMSO was transferred to 100 µl RPMI. Then, 5 µl of each of these dilutions were transferred to 96-well tissue culture grade U-bottom plate in triplicate for each ligand and each donor. Final inhibitor concentrations were 10, 3.3, 1.1, 0.37, 0.12, 0.04, 0.014, 0.0046, 0.0015, 0.00051, 0.00017, 0.00006 µM. No inhibitor (stimulation only) controls were included in triplicate for each donor. Diluted blood was dispensed on top of inhibitor dilutions at 150 µl/well. Plates were incubated at 37° C. 5% CO2 for 30 min. For TLR7 stimulation, 10 mM stock of a TLR7-specific small molecule agonist in DMSO was diluted to 90 µM in RPMI and 5 µl were added to each inhibitor dilution for each donor. Final concentration was 3 µM. For TLR8 stimulation, 10 mM stock of a TLR8-specific small molecule agonist in DMSO was diluted to 15 µM in RPMI and 5 µl were added to each inhibitor dilution for each donor. Final concentration was 0.5 µM. No stimulation controls were included in triplicate for each donor. Plates were incubated at 37° C. 5% CO2 overnight. Next day, plasma was collected and IL-6 was measured by AlphaLISA (PerkinElmer AL223 according to manufacturer’s protocol.

TLR7 [2] = target: T1, TLR7; assay: Human whole blood assay, TLR7-specific agonist stimulation, IL-6 by AlphaLISA; design: Human whole blood from healthy donors was drawn into EDTA Vacutainer tubes; endogenous in cells; host or cells: human whole blood (healthy donors); conditions: TLR7-specific agonist 3 µM, IL-6 readout, read-out: IC50 TLR7 (IL6 READOUT) HUMAN WHOLE BLOOD (N=2)
Description: as §1

[3] = Example 4 results table, assay/readout not specified, read-out: Potency
[4] = HEK293 TLR7/NFKb reporter cells, R848 agonist, read-out: IC50 TLR7 (IL6 READOUT) HEK TRANSFECTED

| SMILES | IC50 (TLR7 [1]; [3]) | IC50 (TLR7 [1]; [4]) | IC50 (TLR8) | IC50 (TLR7 [2]) |
| --- | --- | --- | --- | --- |
| CCN(CC)Cc1cc(Nc2ccnc3cc(Cl)ccc23)cc(CN(CC)CC)c1O [Compound 2, CYCLOQUINE] | < 1000 nM | 1390 nM | – | – |
| Oc1c(CN2CCCC2)cc(Nc2ccnc3cc(Cl)ccc23)cc1CN1CCCC1 [Compound 3, BISPYROQUINE] | < 1000 nM | 4590 nM | – | – |
| CCN(CC)CCCC(C)Nc1ccnc2cc(Cl)ccc12 (stereo not shown) [CHLOROQUINE, Chloroquine] | – | – | 53300 nM | 2280 nM |
| CCN(CC)Cc1cc(Nc2ccnc3cc(Cl)ccc23)ccc1O [AMODIAQUINE] | – | > 10000 nM | – | – |

Source: patent publication US20230301981A1, “TLR7/8 ANTAGONISTS AND USES THEREOF” (Merck Patent GmbH, priority 2020, published 2023)
